What was measured:
Assay type in all cases: in vivo
[1] = system: ryegrass, Italian (Italian ryegrass, Lolium multiflorum); experiment: Test A greenhouse herbicide test, pre- and postemergence
Method in brief: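 Seeds sown in loam–sand blend got a preemergence directed soil spray of compound in non-phytotoxic solvent with surfactant. Postemergence treatment was given at 2–10 cm, one- to two-leaf stage. After ~10 d in greenhouse, injury was rated visually vs untreated controls, 0 (no effect) to 100 (complete control).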

[2] = system: galium (catchweed bedstraw, Galium aparine); experiment: Test A greenhouse herbicide test, postemergence; details: for Galium plant response rating: 0 is no effect, 100 is complete control
Method in brief: (§1)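 Greenhouse postemergence test: formulated chemicals sprayed on one- to two-leaf plants (2 to 10 cm), grown in loam soil blended with sand. Injury assessed visually about 10 d later against untreated controls, scored 0 (no effect) to 100 (complete control).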

[3] = system: blackgrass (Alopecurus myosuroides); experiment: Test A greenhouse herbicide test, postemergence; details: for Blackgrass plant response rating: 0 is no effect, 100 is complete control
Method in brief: as §1

rice (Oryza sativa) = experiment: Test B flooded paddy test; details: 250 g ai/ha, Flood; visual rating on scale of 0 to 100 where 0 is no effect and 100 is complete control; 13 to 15 d after treatment
Method in brief: (§2)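 Plants at the 2-leaf stage were flooded to 3 cm above soil, and test compounds were applied directly into the paddy water, which was held at that depth throughout. After 13 to 15 d in a greenhouse, injury was rated visually against untreated controls on a 0–100 scale (0 no effect, 100 complete control).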

[4] = system: sedge, umbrella (small-flower umbrella sedge, Cyperus difformis); experiment: Test B flooded paddy test; details: 250 g ai/ha, Flood; visual rating on scale of 0 to 100 where 0 is no effect and 100 is complete control; 13 to 15 d after treatment
Method in brief: as §2

[5] = system: ducksalad (Heteranthera limosa); experiment: Test B flooded paddy test; details: 250 g ai/ha, Flood; visual rating on scale of 0 to 100 where 0 is no effect and 100 is complete control; 13 to 15 d after treatment
Method in brief: as §2

[6] = system: barnyardgrass (Echinochloa crus-galli); experiment: Test B flooded paddy test; details: 250 g ai/ha, Flood; visual rating on scale of 0 to 100 where 0 is no effect and 100 is complete control; 13 to 15 d after treatment
Method in brief: as §2

[7] = system: galium (catchweed bedstraw, Galium aparine); experiment: Test C greenhouse herbicide test, pre- and postemergence
Method in brief: (§3)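 Two application timings: at sowing into a soil/sand blend, and on 2–18 cm seedlings in peat-vermiculite potting mix. A non-phytotoxic, surfactant-containing solvent carried the compounds. Plants were compared with controls and rated visually on 0–100 after 13–15 d.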

[8] = system: foxtail, giant (giant foxtail, Setaria faberii); experiment: as above
Method in brief: as §3

[9] = system: oilseed rape (Brassica napus); experiment: as above
Method in brief: as §3

[10] = Postemergence, 500 g ai/ha, visual rating after approx. 10 d, 0 to 100 scale (0 no effect, 100 complete control)
[11] = Preemergence, 500 g ai/ha, 0 to 100 scale where 0 is no effect and 100 is complete control
[12] = 125 g ai/ha, 0 to 100 scale, 0 no effect, 100 complete control
[13] = 500 g ai/ha, visual rating after approx. 10 d, 0 to 100 scale (0 no effect, 100 complete control)
[14] = Postemergence, 31 g ai/ha, scale 0 to 100 (0 no effect, 100 complete control)
[15] = Postemergence, 62 g ai/ha, 0 to 100 scale (0 no effect, 100 complete control)
[16] = Postemergence, 250 g ai/ha, scale 0 to 100, 0 is no effect, 100 is complete control
[17] = postemergence, 125 g ai/ha, scale 0 to 100, 0 no effect, 100 complete control
[18] = Postemergence, 125 g ai/ha, 0 to 100 scale where 0 is no effect and 100 is complete control
[19] = 125 g ai/ha, 0 to 100 scale where 0 is no effect and 100 is complete control
[20] = 4 g ai/ha, preemergence, visual rating, scale 0 to 100 (0 no effect, 100 complete control), 13 to 15 d
[21] = Postemergence, 8 g ai/ha, scale 0 to 100 (0 no effect, 100 complete control)
[22] = Postemergence, 16 g ai/ha, scale 0 to 100 (0 no effect, 100 complete control)
[23] = Preemergence, 16 g ai/ha, scale 0 to 100, 0 is no effect, 100 is complete control
[24] = Preemergence, 31 g ai/ha, scale 0 to 100, 0 is no effect, 100 is complete control
[25] = Postemergence, 500 g ai/ha, 0 to 100 scale, 0 is no effect, 100 is complete control
[26] = Preemergence, 125 g ai/ha, 0 to 100 scale where 0 is no effect and 100 is complete control
[27] = Preemergence, 500 g ai/ha, 0 to 100 scale, 0 no effect, 100 complete control
[28] = 125 g ai/ha, visual rating after approx. 10 d, 0 to 100 scale (0 no effect, 100 complete control)
[29] = Postemergence, 31 g ai/ha, 0 to 100 scale (0 no effect, 100 complete control)
[30] = Postemergence, 125 g ai/ha, scale 0 to 100, 0 is no effect, 100 is complete control
[31] = Postemergence, 250 g ai/ha, scale 0 to 100, 0 no effect, 100 complete control, 13 to 15 d
[32] = Preemergence, 62 g ai/ha, scale 0 to 100, 0 is no effect, 100 is complete control
[33] = Preemergence, 125 g ai/ha, scale 0 to 100, 0 is no effect, 100 is complete control
[34] = Preemergence, 250 g ai/ha, scale 0 to 100, 0 no effect, 100 complete control
[35] = postemergence, 62 g ai/ha, scale 0 to 100, 0 no effect, 100 complete control

Compound: Cc1nn(C)c(=O)c(-c2c([N+](=O)[O-])ccc3ccccc23)c1O [Compound 165]
- Plant response rating, Ryegrass, Italian ([1]; Postemergence, 125 g ai/ha, 0 to 100 scale, 0 no effect, 100 complete control): 80
- Plant response rating, Ryegrass, Italian [1, 10]: 90
- Plant response rating, Ryegrass, Italian ([1]; Preemergence, 125 g ai/ha, visual injury rating, 0 to 100 scale (0 no effect, 100 complete control), approx. 10 d): 40
- Plant response rating, Ryegrass, Italian [1, 11]: 100
- Plant response rating, Galium [2, 12]: 100
- Plant response rating, Galium [2, 13]: 100
- Plant response rating, Blackgrass [3, 12]: 20
- Plant response rating, Blackgrass [3, 13]: 50
- Plant response rating, Rice (rice (Oryza sativa)): 0
- Plant response rating, Sedge, Umbrella [4]: 0
- Plant response rating, Ducksalad [5]: 0
- Plant response rating, Barnyardgrass [6]: 0
- Plant response rating, Galium [7, 14]: 85
- Galium plant response rating [7, 15]: 85
- Plant response rating, Galium [7, 16]: 100
- Galium plant response rating [7, 17]: 98
- Plant response rating, Foxtail, Giant [8, 14]: 0
- Foxtail, Giant plant response rating [8, 15]: 5
- Plant response rating, Foxtail, Giant [8, 16]: 25
- Foxtail, Giant plant response rating [8, 17]: 15
- Plant response rating, Oilseed Rape [9, 14]: 0
- Oilseed Rape plant response rating [9, 15]: 0
- Plant response rating, Oilseed Rape [9, 16]: 5
- Oilseed Rape plant response rating [9, 17]: 0

Compound: Cc1ccc2ccc(Cl)cc2c1-c1c(O)c(C)nn(C)c1=O [Compound 144]
- Plant response rating, Ryegrass, Italian [1, 18]: 100
- Plant response rating, Ryegrass, Italian [1, 10]: 100
- Plant response rating, Ryegrass, Italian [1, 11]: 100
- Plant response rating, Galium [2, 19]: 100
- Plant response rating, Galium [2, 13]: 100
- Plant response rating, Blackgrass [3, 19]: 90
- Plant response rating, Blackgrass [3, 13]: 100
- Plant response rating, Rice (rice (Oryza sativa)): 30
- Plant response rating, Sedge, Umbrella [4]: 0
- Plant response rating, Ducksalad [5]: 40
- Plant response rating, Barnyardgrass [6]: 30
- Plant response rating, Galium [7, 20]: 90
- Galium plant response rating [7, 21]: 80
- Plant response rating, Galium [7, 21]: 90
- Plant response rating, Galium [7, 22]: 90
- Plant response rating, Galium [7, 14]: 95
- Plant response rating, Galium [7, 23]: 95
- Plant response rating, Galium [7, 24]: 100
- Plant response rating, Foxtail, Giant [8, 20]: 30
- Foxtail, Giant plant response rating [8, 21]: 45
- Plant response rating, Foxtail, Giant [8, 21]: 50
- Plant response rating, Foxtail, Giant [8, 22]: 60
- Plant response rating, Foxtail, Giant [8, 14]: 70
- Plant response rating, Foxtail, Giant ([8]; Preemergence, 8 g ai/ha, scale 0 to 100, 0 is no effect, 100 is complete control): 60
- Plant response rating, Foxtail, Giant [8, 23]: 75
- Plant response rating, Foxtail, Giant [8, 24]: 90
- Plant response rating, Oilseed Rape [9, 20]: 0
- Oilseed Rape plant response rating [9, 21]: 85
- Plant response rating, Oilseed Rape [9, 21]: 95
- Plant response rating, Oilseed Rape [9, 22]: 95
- Plant response rating, Oilseed Rape [9, 14]: 95
- Plant response rating, Oilseed Rape [9, 23]: 5
- Plant response rating, Oilseed Rape [9, 24]: 70

Compound: Cc1nn(C)c(=O)c(-c2c(C)sc3ccc(Br)cc23)c1O [Compound 22]
- Plant response rating, Ryegrass, Italian ([1]; Postemergence, 125 g ai/ha, visual rating after approx. 10 d, 0 to 100 scale (0 no effect, 100 complete control)): 80
- Ryegrass, Italian plant response rating [1, 25]: 100
- Ryegrass, Italian plant response rating [1, 26]: 100
- Plant response rating, Ryegrass, Italian [1, 27]: 100
- Plant response rating, Galium [2, 28]: 90
- Galium plant response rating ([2]; 500 g ai/ha, 0 to 100 scale): 100
- Plant response rating, Blackgrass [3, 28]: 50
- Blackgrass plant response rating ([3]; 500 g ai/ha, 0 to 100 scale): 70
- Plant response rating, Rice (rice (Oryza sativa)): 0
- Plant response rating, Sedge, Umbrella [4]: 0
- Plant response rating, Ducksalad [5]: 0
- Plant response rating, Barnyardgrass [6]: 0
- Galium plant response rating [7, 29]: 90
- Plant response rating, Galium [7, 30]: 95
- Plant response rating, Galium [7, 31]: 95
- Plant response rating, Galium [7, 24]: 90
- Plant response rating, Galium [7, 32]: 90
- Plant response rating, Galium [7, 33]: 95
- Galium plant response rating [7, 34]: 95
- Galium plant response rating [7, 35]: 90
- Foxtail, Giant plant response rating [8, 29]: 10
- Plant response rating, Foxtail, Giant [8, 30]: 40
- Plant response rating, Foxtail, Giant [8, 31]: 35
- Plant response rating, Foxtail, Giant [8, 24]: 5
- Plant response rating, Foxtail, Giant [8, 32]: 15
- Plant response rating, Foxtail, Giant [8, 33]: 55
- Foxtail, Giant plant response rating [8, 34]: 85
- Foxtail, Giant plant response rating [8, 35]: 15
- Oilseed Rape plant response rating [9, 29]: 5
- Plant response rating, Oilseed Rape [9, 30]: 90
- Plant response rating, Oilseed Rape [9, 31]: 75
- Plant response rating, Oilseed Rape [9, 24]: 0
- Plant response rating, Oilseed Rape [9, 32]: 5
- Plant response rating, Oilseed Rape [9, 33]: 5
- Oilseed Rape plant response rating [9, 34]: 80
- Oilseed Rape plant response rating [9, 35]: 15

Compound: CCc1sc2ccc(C)cc2c1-c1c(O)c(C)nn(C)c1=O [Compound 47]
- Plant response rating, Ryegrass, Italian [1, 18]: 70
- Ryegrass, Italian plant response rating [1, 25]: 80
- Ryegrass, Italian plant response rating [1, 26]: 60
- Plant response rating, Ryegrass, Italian [1, 27]: 90
- Plant response rating, Galium [2, 19]: 90
- Galium plant response rating ([2]; 500 g ai/ha, 0 to 100 scale): 100
- Plant response rating, Blackgrass [3, 19]: 60
- Blackgrass plant response rating ([3]; 500 g ai/ha, 0 to 100 scale): 70
- Plant response rating, Rice (rice (Oryza sativa)): 0
- Plant response rating, Sedge, Umbrella [4]: 0
- Plant response rating, Ducksalad [5]: 0
- Plant response rating, Barnyardgrass [6]: 0
- Galium plant response rating [7, 29]: 80
- Plant response rating, Galium [7, 30]: 90
- Plant response rating, Galium [7, 31]: 90
- Plant response rating, Galium [7, 24]: 90
- Plant response rating, Galium [7, 32]: 95
- Plant response rating, Galium [7, 33]: 98
- Galium plant response rating [7, 34]: 98
- Galium plant response rating [7, 35]: 90
- Foxtail, Giant plant response rating [8, 29]: 50
- Plant response rating, Foxtail, Giant [8, 30]: 75
- Plant response rating, Foxtail, Giant [8, 31]: 85
- Plant response rating, Foxtail, Giant [8, 24]: 15
- Plant response rating, Foxtail, Giant [8, 32]: 50
- Plant response rating, Foxtail, Giant [8, 33]: 85
- Foxtail, Giant plant response rating [8, 34]: 100
- Foxtail, Giant plant response rating [8, 35]: 65
- Oilseed Rape plant response rating [9, 29]: 0
- Plant response rating, Oilseed Rape [9, 30]: 5
- Plant response rating, Oilseed Rape [9, 31]: 10
- Plant response rating, Oilseed Rape [9, 24]: 0
- Plant response rating, Oilseed Rape [9, 32]: 0
- Plant response rating, Oilseed Rape [9, 33]: 0
- Oilseed Rape plant response rating [9, 34]: 10
- Oilseed Rape plant response rating [9, 35]: 0
